Reference: PMC7914897, “Cytotoxic Potential of a-Azepano- and 3-Amino-3,4-SeCo-Triterpenoids” (International Journal of Molecular Sciences, 2021)

Experiments:
[1] = system: BT-549 (Breast cancer); assay: NCI-60 screen (SRB, 48 h); assay type: cell-based; conditions: Homo sapiens; for GI50: BT-549; for IC (TGI): BT-549, 48 h
[2] = system: COLO 205 (Colon cancer); assay: NCI-60 screen (SRB, 48 h); conditions: Homo sapiens; for GI50: COLO 205; for IC (TGI): COLO 205, 48 h, read-out: TGI; for CC50: COLO 205, read-out: LC50
[3] = system: PC-3 (Prostate cancer); assay: NCI-60 screen (SRB, 48 h); conditions: Homo sapiens; for GI50: PC-3; for IC (TGI): PC-3, 48 h, read-out: TGI; for CC50: PC-3, read-out: LC50
[4] = system: CAKI-1 (Renal cancer); assay: NCI-60 screen (SRB, 48 h); conditions: Homo sapiens; for GI50: CAKI-1; for IC (TGI): CAKI-1, 48 h, read-out: TGI; for CC50: CAKI-1, read-out: LC50
[5] = system: SF-295 (CNS cancer); assay: NCI-60 screen (SRB, 48 h); conditions: Homo sapiens; for GI50: SF-295; for IC (TGI): SF-295, 48 h, read-out: TGI; for CC50: SF-295, read-out: LC50
[6] = system: Breast cancer subpanel; assay: NCI-60 screen, subpanel; conditions: Homo sapiens; for IC (TGI): 48 h, read-out: TGI MG_MID; for GI50: read-out: GI50 MG_MID; for CC50: read-out: LC50 MG_MID
[7] = system: EKVX (NSC lung cancer); assay: NCI-60 screen (SRB, 48 h); conditions: Homo sapiens; for IC (TGI): 48 h, read-out: TGI; for CC50: read-out: LC50
[8] = system: NCI-H322M (NSC lung cancer); assay: NCI-60 screen (SRB, 48 h); conditions: Homo sapiens; for IC (TGI): 48 h, read-out: TGI; for CC50: read-out: LC50
[9] = system: MOLT-4 (Leukemia); assay: NCI-60 screen (SRB, 48 h); conditions: Homo sapiens; for GI50: MOLT-4; for IC (TGI): MOLT-4, 48 h, read-out: TGI; for CC50: MOLT-4, read-out: LC50
[10] = system: OVCAR-3 (Ovarian cancer); assay: cells; conditions: Homo sapiens; for GI50: OVCAR-3; for IC (TGI): OVCAR-3, 48 h, read-out: TGI; for CC50: OVCAR-3, read-out: LC50
[11] = system: NCI-H460 (NSC lung cancer); assay: NCI-60 screen (SRB, 48 h); conditions: for GI50 / IC (TGI) / CC50: Homo sapiens; for GI50: NCI-H460; for IC (TGI): NCI-H460, 48 h, read-out: TGI; for CC50: NCI-H460, read-out: LC50
[12] = system: NSC lung cancer subpanel; assay: NCI-60 screen, subpanel; conditions: Homo sapiens; for IC (TGI): 48 h, read-out: TGI MG_MID; for GI50: read-out: GI50 MG_MID; for CC50: read-out: LC50 MG_MID
[13] = system: IGROV1 (Ovarian cancer); assay: NCI-60 screen (SRB, 48 h); conditions: Homo sapiens; for GI50: IGROV-1; for IC (TGI): IGROV-1, 48 h, read-out: TGI; for CC50: IGROV-1, read-out: LC50
[14] = system: RXF 393 (Renal cancer); assay: NCI-60 screen (SRB, 48 h); conditions: Homo sapiens; for GI50: RXF 393; for IC (TGI): RXF 393, 48 h, read-out: TGI; for CC50: RXF 393, read-out: LC50
[15] = system: SR (Leukemia); assay: NCI-60 screen (SRB, 48 h); assay type: cell-based; conditions: for GI50: Homo sapiens
[16] = system: Colon Cancer subpanel; assay: NCI-60 screen, subpanel; conditions: Homo sapiens; for IC (TGI): 48 h, read-out: TGI MG_MID; for GI50: read-out: GI50 MG_MID; for CC50: read-out: LC50 MG_MID
[17] = system: SK-MEL-5 (Melanoma); assay: NCI-60 screen (SRB, 48 h); conditions: for GI50 / IC (TGI) / CC50: Homo sapiens; for GI50: SK-MEL-5; for IC (TGI): SK-MEL-5, 48 h, read-out: TGI; for CC50: SK-MEL-5, read-out: LC50
[18] = system: Renal Cancer subpanel; assay: NCI-60 screen, subpanel; conditions: Homo sapiens; for IC (TGI): 48 h, read-out: TGI MG_MID; for GI50: read-out: GI50 MG_MID; for CC50: read-out: LC50 MG_MID
[19] = system: MCF7 (Breast cancer); assay: NCI-60 screen (SRB, 48 h); conditions: Homo sapiens; for GI50: MCF7; for IC (TGI): MCF7, 48 h, read-out: TGI; for CC50: MCF7, read-out: LC50
[20] = system: KM12 (Colon cancer); assay: NCI-60 screen (SRB, 48 h); conditions: Homo sapiens; for GI50: KM12; for IC (TGI): KM12, 48 h, read-out: TGI; for CC50: KM12, read-out: LC50
[21] = system: SNB-19 (CNS cancer); assay: NCI-60 screen (SRB, 48 h); conditions: Homo sapiens; for GI50: SNB-19; for IC (TGI): SNB-19, 48 h, read-out: TGI; for CC50: SNB-19, read-out: LC50
[22] = system: UO-31 (Renal cancer); assay: NCI-60 screen (SRB, 48 h); conditions: Homo sapiens; for GI50: UO-31; for IC (TGI): UO-31, 48 h, read-out: TGI; for CC50: UO-31, read-out: LC50
[23] = system: Prostate cancer subpanel; assay: NCI-60 screen, subpanel; conditions: Homo sapiens; for IC (TGI): 48 h, read-out: TGI MG_MID; for GI50: read-out: GI50 MG_MID; for CC50: read-out: LC50 MG_MID
[24] = system: MDA-MB-468 (Breast cancer); assay: cells; conditions: Homo sapiens; for GI50: MDA-MB-468; for IC (TGI): MDA-MB-468, 48 h, read-out: TGI; for CC50: MDA-MB-468, read-out: LC50

`C[C@H]1[C@H](C)CC[C@]2(CO)CC[C@]3(C)C(=CC[C@@H]4[C@@]5(C)CCCNC(C)(C)[C@@H]5CC[C@]43C)[C@H]12` [Compound 4, azepanouvaol] gave a GI50 [1] of 1.55 µM, an IC (TGI) [1] of 2.96 µM and a GI50 [2] of 1.74 µM. It also gave an IC (TGI) [2] of 3.46 µM, a CC50 [2] of 6.86 µM and a GI50 [3] of 1.55 µM. The IC (TGI) [3] was 2.97 µM, the CC50 [3] was 5.66 µM and the GI50 [4] was 1.62 µM. For the same compound, the IC (TGI) [4] was 3.23 µM, the CC50 [4] was 6.43 µM and the GI50 [5] was 1.64 µM. It also gave an IC (TGI) [5] of 3.06 µM, a CC50 [5] of 5.72 µM and an IC (TGI) [6] of 3.69 µM. It also gave a GI50 [6] of 1.74 µM, a CC50 [6] of 12.6 µM and a GI50 [7] of 1.66 µM. The IC (TGI) [7] was 3.29 µM, the CC50 [7] was 6.53 µM and the GI50 [8] was 1.73 µM. For the same compound, the IC (TGI) [8] was 3.19 µM, the CC50 [8] was 5.89 µM and the GI50 [9] was 1.37 µM. It also gave an IC (TGI) [9] of 3.15 µM, a CC50 [9] of 7.25 µM and a GI50 [10] of 1.83 µM. The IC (TGI) [10] was 3.42 µM, the CC50 [10] was 6.39 µM and the GI50 [11] was 1.78 µM. For the same compound, the IC (TGI) [11] was 3.35 µM, the CC50 [11] was 6.3 µM and the “Growth % of the Most Sensitive Cell Lines” value ([11]; NCI-H460, 1 dose 10 µM) was −83.30%. It also gave an IC (TGI) [12] of 3.4 µM, a GI50 [12] of 1.74 µM and a CC50 [12] of 6.37 µM. For the same compound, the GI50 [13] was 1.85 µM, the IC (TGI) [13] was 3.72 µM and the CC50 [13] was 7.45 µM. For the same compound, the GI50 [14] was 1.81 µM, the IC (TGI) [14] was 3.51 µM and the CC50 [14] was 6.79 µM. It also gave a TGI [15] of 3.13 µM, a GI50 [15] of 1.18 µM and an IC (TGI) [16] of 3.07 µM. It also gave a GI50 [16] of 1.52 µM, a CC50 [16] of 6.16 µM and a GI50 [17] of 1.7 µM. For the same compound, the IC (TGI) [17] was 3.09 µM, the CC50 [17] was 5.62 µM and the IC (TGI) [18] was 3.2 µM. It also gave a GI50 [18] of 1.47 µM, a CC50 [18] of 6.11 µM and a GI50 [19] of 1.58 µM. For the same compound, the IC (TGI) [19] was 3.39 µM, the CC50 [19] was 7.28 µM and the GI50 [20] was 1.84 µM. The IC (TGI) [20] was 3.51 µM, the CC50 [20] was 6.68 µM and the GI50 [21] was 1.86 µM. The IC (TGI) [21] was 3.43 µM, the CC50 [21] was 6.31 µM and the GI50 [22] was 1.54 µM. The IC (TGI) [22] was 2.99 µM, the CC50 [22] was 5.79 µM and the IC (TGI) [23] was 3.06 µM. For the same compound, the GI50 [23] was 1.64 µM, the CC50 [23] was 5.7 µM and the GI50 [24] was 1.7 µM. It also gave an IC (TGI) [24] of 3.44 µM and a CC50 [24] of 6.98 µM.

In the case of `C=C(C)C1CCC2(CO)CCC3(C)C(CCC4C5(C)CCCNC(C)(C)C5CCC43C)C12` (stereo not shown) [Compound 1, Azepanobetulin], the GI50 [1] is reported as 1.79 µM, the IC (TGI) [1] is reported as 3.46 µM and the GI50 [2] is reported as 1.54 µM. For the same compound, the IC (TGI) [2] was 3.24 µM, the CC50 [2] was 6.82 µM and the GI50 [3] was 2.94 µM. The IC (TGI) [3] was 2.94 µM, the CC50 [3] was 5.74 µM and the GI50 [4] was 1.55 µM. It also gave an IC (TGI) [4] of 2.89 µM, a CC50 [4] of 5.4 µM and a GI50 [5] of 1.66 µM. For the same compound, the IC (TGI) [5] was 3.13 µM, the CC50 [5] was 5.9 µM and the IC (TGI) [6] was 3.55 µM. It also gave a GI50 [6] of 1.71 µM, a CC50 [6] of 11.5 µM and a GI50 [7] of 1.55 µM. It also gave an IC (TGI) [7] of 3.03 µM, a CC50 [7] of 5.92 µM and a GI50 [8] of 1.63 µM. The IC (TGI) [8] was 3.03 µM, the CC50 [8] was 5.64 µM and the GI50 [9] was 1.79 µM. The IC (TGI) [9] was 4.5 µM, the CC50 [9] was > 100 µM and the GI50 [10] was 1.66 µM. It also gave an IC (TGI) [10] of 3.13 µM, a CC50 [10] of 5.91 µM and a GI50 [11] of 1.63 µM. The IC (TGI) [11] was 3.21 µM, the CC50 [11] was 6.3 µM and the IC (TGI) [12] was 3.35 µM. For the same compound, the GI50 [12] was 1.71 µM, the CC50 [12] was 6.49 µM and the GI50 [13] was 1.65 µM. The IC (TGI) [13] was 3.26 µM, the CC50 [13] was 6.44 µM and the GI50 [14] was 1.68 µM. The IC (TGI) [14] was 3.18 µM, the CC50 [14] was 6.04 µM and the TGI [15] was 3.79 µM. For the same compound, the GI50 [15] was 1.59 µM, the IC (TGI) [16] was 3.01 µM and the GI50 [16] was 1.51 µM. It also gave a CC50 [16] of 5.98 µM, a GI50 [17] of 1.38 µM and an IC (TGI) [17] of 2.7 µM. The CC50 [17] was 5.28 µM, the “Growth % of the Most Sensitive Cell Lines” value ([17]; SK-MEL-5, 1 dose 10 µM) was −82.49% and the IC (TGI) [18] was 3.43 µM. For the same compound, the GI50 [18] was 1.71 µM, the CC50 [18] was 9.33 µM and the GI50 [19] was 1.29 µM. For the same compound, the IC (TGI) [19] was 2.77 µM, the CC50 [19] was 5.94 µM and the GI50 [20] was 1.73 µM. For the same compound, the IC (TGI) [20] was 3.24 µM, the CC50 [20] was 6.09 µM and the GI50 [21] was 1.75 µM. The IC (TGI) [21] was 3.2 µM, the CC50 [21] was 5.86 µM and the GI50 [22] was 1.56 µM. The IC (TGI) [22] was 2.99 µM, the CC50 [22] was 5.74 µM and the IC (TGI) [23] was 2.98 µM. It also gave a GI50 [23] of 2.98 µM, a CC50 [23] of 5.66 µM and a GI50 [24] of 1.66 µM. The IC (TGI) [24] was 3.38 µM and the CC50 [24] was 6.88 µM.
